Read-outs that look alike come from different tables or passages of the source.
What was measured:
[1] = tested on: HIV-1IDV5μM; assay: microbe, parasite or virus in culture; assay type: cell-based; conditions: for IC50: Human immunodeficiency virus 1, MT4, read-out: IC50 against HIV-1IDV5μM; for fold change of IC50, HIV-1IDV5μM: compared to wild-type HIV-1NL4-3
Description: (§1) Drug susceptibility assay. The susceptibility of HIV-1LAI, HIV-2EHO, HIV-2ROD, to various drugs and the cytotoxicity of those drugs was determined by using the MTT assay. Briefly, MT-2 cells (2×10^4/mL) were exposed to 100 TCID50s (50% tissue culture infectious doses) of HIV-1LAI, HIV-2EHO, or HIV-2ROD in the presence or absence of various concentrations of drugs in 96-well microculture plates and were incubated at 37° C. for 7 days. After 100 μL of the medium was removed from each well, 3-(4,5-dimethylthiazol-2-yl)-2,5-diphenyltetrazolium bromide (MTT) solution (10 μL, 7.5 mg/mL in phosphate-buffered saline) was added to each well in the plate, followed by incubation at 37° C. for 4 hours. […] All assays were performed in duplicate or triplicate. To determine the sensitivity of HIV-1Ba-L, HIV-1ERS104 pre, and clinical multi-drug-resistant HIV-1 isolates and different subtypes of HIV-1 isolates to drugs, phytohemagglutinin-activated peripheral blood mononuclear cells (PHA-PBMs; 10^6/mL) were exposed to 50 TCID50 (50% tissue infectious dose) of each HIV-1 isolate and cultured in the presence or absence of various concentrations of drugs in 10-fold serial dilutions in 96-well microtiter culture plates. To determine the drug susceptibility of certain laboratory HIV-1 strains (HIV-1NL4-3), MT-4 cells were used as target cells. MT-4 cells (10^5/mL) were exposed to 100 TCID50 of wild type HIV-1NL4-3 and PI-resistant HIV-1NL4-3 in the presence or absence of various concentrations of drugs and were incubated at 37° C. On day 7 of culture, the supernatant was harvested and the amount of p24 Gag protein was determined by using a fully automated chemiluminescent enzyme immunoassay system (Lumipulse F; Fujirebio Inc., Tokyo, Japan) (22). […] All assays were performed in duplicate or triplicate.
(§2) Generation of PI-resistant HIV-1 in vitro. MT-4 cells (10^5/mL) were exposed to HIV-1NL4-3 (500 TCID50) and cultured in the presence of various PIs at an initial concentration of its IC50 values. Viral replication was monitored by determination of the amount of p24 Gag produced by MT-4 cells. The culture supernatants were harvested on day 7 and used to infect fresh MT-4 cells for the next round of culture in the presence of increasing concentrations of each drug. […] Proviral DNA samples obtained from the lysates of infected cells were subjected to nucleotide sequencing. This drug selection procedure was carried out until the drug concentration reached 1 or 5 μM.

[2] = tested on: HIV-1NFV5μM; assay: microbe, parasite or virus in culture; assay type: cell-based; conditions: for IC50: Human immunodeficiency virus 1, MT4, read-out: IC50 against HIV-1NFV5μM; for fold change of IC50, HIV-1NFV5μM: compared to wild-type HIV-1NL4-3
Description: as §1, §2

[3] = tested on: HIV-1SQV5μM; assay: microbe, parasite or virus in culture; assay type: cell-based; conditions: for IC50: Human immunodeficiency virus 1, MT4, read-out: IC50 against HIV-1SQV5μM; for fold change of IC50, HIV-1SQV5μM: compared to wild-type HIV-1NL4-3
Description: as §1, §2

[4] = tested on: HIV-1APV5μM; assay: microbe, parasite or virus in culture; assay type: cell-based; conditions: for IC50: Human immunodeficiency virus 1, MT4, read-out: IC50 against HIV-1APV5μM; for fold change of IC50, HIV-1APV5μM: compared to wild-type HIV-1NL4-3
Description: as §1, §2

[5] = tested on: HIV-1RTV5μM; assay: microbe, parasite or virus in culture; assay type: cell-based; conditions: for IC50: Human immunodeficiency virus 1, MT4, read-out: IC50 against HIV-1RTV5μM; for fold change of IC50, HIV-1RTV5μM: compared to wild-type HIV-1NL4-3
Description: as §1, §2

[6] = tested on: HIV-1ATV1μM; assay: microbe, parasite or virus in culture; assay type: cell-based; conditions: for IC50: Human immunodeficiency virus 1, MT4, read-out: IC50 against HIV-1ATV1μM; for fold change of IC50, HIV-1ATV1μM: compared to wild-type HIV-1NL4-3
Description: as §1, §2

[7] = tested on: HIV-1LPV1μM; assay: microbe, parasite or virus in culture; assay type: cell-based; conditions: for IC50: Human immunodeficiency virus 1, MT4, read-out: IC50 against HIV-1LPV1μM; for fold change of IC50, HIV-1LPV1μM: compared to wild-type HIV-1NL4-3
Description: as §1, §2

[8] = tested on: HIV-2EHO; assay: MTT assay, MT-2 cells exposed to HIV-2EHO; assay type: cell-based
Description: as §1
All assays were conducted in duplicate, and the data shown represent mean values (±1 standard deviations) derived from the results of three independent experiments.

[9] = tested on: 92UG029 (A-X4); assay: p24 Gag production inhibition, PHA-PBMs, subtype A isolate 92UG029; assay type: cell-based, HIV-1
Description: as §1
The IC50 values were determined by using PHA-PBMs as target cells and the inhibition of p24 Gag protein production by each drug was used as an endpoint. All assays were conducted in duplicate, and the data shown represent mean values (±1 standard deviations) derived from the results of two or three independent experiments.

[10] = tested on: HIV-1ERS104pre (wild-type: X4); assay: p24 Gag production inhibition, PHA-PBMs, wild-type clinical isolate; assay type: cell-based
Description: as §1
The amino acid substitutions identified in the protease-encoding region of HIV-1ERS104pre, HIV-1TM, HIV-1MM, HIV-1JSL, HIV-1B, HIV-1C, HIV-1G compared to the consensus type B sequence cited from the Los Alamos database include L63P; L10I, K14R, R41K, M46L, I54V, L63P, A71V, V82A, L90M; I93L; L10I, K43T, M46L, I54V, L63P, A71V, V82A, L90M, Q92K; L10I, L24I, I33F, E35D, M36I, N37S, M46L, I54V, R57K, I62V, L63P, A71V, G73S, V82A; L10I, K14R, L33I, M36I, M46I, F53I, K55R, I62V, L63P, A71V, G73S, V82A, L90M, I93L; L10I, I15V, K20R, L24I, M36I, M46L, I54V, I62V, L63P, K70Q, V82A, L89M; and L10I, V11I, T12E, I15V, L19I, R41K, M46L, L63P, A71T, V82A, L90M, respectively. HIV-1ERS104pre served as a source of wild-type HIV-1. The IC50 values were determined by using PHA-PBMs as target cells and the inhibition of p24 Gag protein production by each drug was used as an endpoint. The numbers in parentheses represent the fold changes of IC50 values for each isolate compared to the IC50 values for wild-type HIV-1ERS104pre. All assays were conducted in duplicate or triplicate, and the data shown represent mean values (±1 standard deviations) derived from the results of three independent experiments.

[11] = tested on: MT-2 cells; assay: Cytotoxicity by MTT assay; assay type: cell-based, Human
Description: as §1

[12] = Human immunodeficiency virus 2, MT2, read-out: IC50 against HIV-2EHO
[13] = Human immunodeficiency virus 1, PHA-PBMs, p24 Gag production, read-out: IC50 against 92UG029 (A-X4)
[14] = Human immunodeficiency virus 1, read-out: IC50 against HIV-1ERS104pre (wild-type: X4)
[15] = Human immunodeficiency virus 2, MT2, MT-2 cells, 100 TCID50, MTT assay, read-out: IC50 against HIV-2EHO
[16] = Human immunodeficiency virus 1, PHA-PBMs, p24 Gag production, read-out: IC50 against HIV-1ERS104pre (wild-type: X4)
[17] = cytotoxicity, MTT assay, MT-2 cells, read-out: CC50

Row | SMILES | IC50 [1] [nM] | fold change of IC50, HIV-1IDV5μM [1] | IC50 [2] [nM] | fold change of IC50, HIV-1NFV5μM [2] | IC50 [3] [nM] | fold change of IC50, HIV-1SQV5μM [3] | IC50 [4] [nM] | fold change of IC50, HIV-1APV5μM [4] | IC50 [5] [nM] | fold change of IC50, HIV-1RTV5μM [5] | IC50 [6] [nM] | fold change of IC50, HIV-1ATV1μM [6] | IC50 [7] [nM] | fold change of IC50, HIV-1LPV1μM [7] | IC50 [8, 12] [nM] | IC50 [9, 13] [nM] | IC50 [8, 15] [nM] | IC50 [10, 16] [nM] | CC50 [11, 17] [nM] | also measured
1 | COC(=O)N[C@H](C(=O)N[C@@H](Cc1ccccc1)[C@@H](O)CN(Cc1ccc(-c2ccccn2)cc1)NC(=O)[C@@H](NC(=O)OC)C(C)(C)C)C(C)(C)C [ATV, Atazanavir] | 60 ± 20 | 14 | 21 ± 6 | 5 | 326 ± 1 | 78 | 3 ± 1 | 1 | 18 ± 8 | 4 | 330 | 79 | 40 ± 2 | 10 | 5 ± 2 | 6 ± 2 |  |  |  | IC50 [10, 14]: 3.8 ± 0.4 nM; CC50 ([11]; human, 7 days): 27600 nM
2 | CC(C)(C)NC(=O)[C@@H]1CN(Cc2cccnc2)CCN1C[C@@H](O)C[C@@H](Cc1ccccc1)C(=O)N[C@H]1c2ccccc2C[C@H]1O [IDV, indinavir] | > 1000 |  | 270 ± 50 |  | > 1000 |  | 200 ± 7 |  | 250 ± 10 |  | 388 ± 1 |  | > 1000 |  |  | 44 ± 9 | 24 ± 5 | 24 ± 8 | 69800 | 
3 | CC(C)CN(CC(O)C(Cc1ccccc1)NC(=O)OC1COC2OCCC12)S(=O)(=O)c1ccc2c(c1)OCO2 (centres unmarked) [GRL-98065] | 3.7 ± 0.7 | 12 | 2.4 ± 0.8 | 8 | 6 ± 3 | 20 | 32 | 107 | 2.5 ± 0.3 | 8 | 1.5 ± 0.9 | 5 | 7.5 ± 0.3 | 25 | 3.2 ± 0.7 | 0.5 ± 0.2 |  |  |  | 
4 | Cc1cccc(C)c1OCC(=O)N[C@@H](Cc1ccccc1)[C@@H](O)C[C@H](Cc1ccccc1)NC(=O)[C@H](C(C)C)N1CCCNC1=O [LPV, lopinavir] |  |  |  |  |  |  |  |  |  |  |  |  |  |  |  | 7 ± 1 | 2.6 ± 0.8 | 7 ± 1 | > 100000 | 
5 | CC(C)c1nc(CN(C)C(=O)N[C@H](C(=O)N[C@@H](Cc2ccccc2)C[C@H](O)[C@H](Cc2ccccc2)NC(=O)OCc2cncs2)C(C)C)cs1 [RTV, ritonavir] |  |  |  |  |  |  |  |  |  |  |  |  |  |  |  | 71 ± 11 | 210 ± 50 |  |  | 
6 | CC(C)(C)NC(=O)[C@@H]1C[C@@H]2CCCC[C@@H]2CN1C[C@@H](O)[C@H](Cc1ccccc1)NC(=O)[C@H](CC(N)=O)NC(=O)c1ccc2ccccc2n1 [SQV, Saquinavir] | 59 ± 4 | 8 | 24 ± 8 | 3 | > 1000 | > 143 | 31 ± 4 | 4 | 10 ± 8 | 1 | 37 ± 4 | 5 | 32 ± 2 | 5 | 3 ± 0.4 |  |  |  | 16400 | IC50 ([9]; Human immunodeficiency virus 1, read-out: IC50 against 92UG029 (A-X4)): 4.8 ± 0.5 nM; IC50 [10, 14]: 8 ± 3 nM
7 | Cc1c(O)cccc1C(=O)N[C@@H](CSc1ccccc1)[C@H](O)CN1C[C@H]2CCCC[C@H]2C[C@H]1C(=O)NC(C)(C)C [NFV, Nelfinavir] |  |  |  |  |  |  |  |  |  |  |  |  |  |  |  | 43 ± 6 | 30 ± 6 |  | 8100 | 
8 | CC(C)CN(C[C@@H](O)[C@H](Cc1ccccc1)NC(=O)O[C@H]1CCOC1)S(=O)(=O)c1ccc(N)cc1 [APV, Amprenavir] | 170 ± 10 |  | 60 ± 4 |  | 330 ± 30 |  | > 1000 |  | 280 ± 20 |  | 200 ± 70 |  | 310 ± 20 |  |  | 46 ± 6 | 250 ± 80 | 29 ± 5 | > 100000 | 

From patent publication US9808527B2, “Methods and compositions for treating HIV infections” (priority 2006, dated 2017)
